Active and inactive are the calls of the source. The rule behind the calls is not given here.
What was measured:
Acetylcholinesterase = molecular target: T1, Acetylcholinesterase (Rattus norvegicus, UniProt P37136); assay: Inhibition of AchE in Rattus norvegicus (rat) cortex homogenates by Ellman's method
T1 sequence (P37136 whole entry): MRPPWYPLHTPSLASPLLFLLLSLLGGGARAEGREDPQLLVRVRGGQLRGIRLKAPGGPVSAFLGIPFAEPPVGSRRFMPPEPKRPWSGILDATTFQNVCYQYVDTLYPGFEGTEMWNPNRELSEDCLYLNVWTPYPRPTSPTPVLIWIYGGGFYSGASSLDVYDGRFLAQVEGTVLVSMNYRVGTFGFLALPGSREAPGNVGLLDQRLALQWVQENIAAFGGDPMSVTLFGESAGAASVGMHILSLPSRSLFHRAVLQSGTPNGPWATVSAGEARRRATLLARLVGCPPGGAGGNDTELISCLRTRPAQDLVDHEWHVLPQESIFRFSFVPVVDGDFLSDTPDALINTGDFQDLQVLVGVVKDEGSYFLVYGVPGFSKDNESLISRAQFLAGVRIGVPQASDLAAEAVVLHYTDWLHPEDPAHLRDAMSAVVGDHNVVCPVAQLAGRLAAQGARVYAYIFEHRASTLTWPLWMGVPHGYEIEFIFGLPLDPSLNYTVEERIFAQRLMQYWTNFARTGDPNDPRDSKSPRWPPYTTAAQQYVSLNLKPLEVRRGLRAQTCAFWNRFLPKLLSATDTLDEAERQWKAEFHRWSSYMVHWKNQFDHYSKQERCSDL

Mus musculus [1] = assay: Antiamnestic activity in scopolamine-induced Swiss albino Mus musculus (mouse) memory deficit model assessed as escape latency time at 2 mg/kg, ip administered 30 min prior to scopolamine challenge measured on day 4 by Morris water maze test (reference value: 78.7 +/- 5.7 secs); format: functional; details: route intraperitoneal
Mus musculus [2] = assay: Antiamnestic activity in scopolamine-induced Swiss albino Mus musculus (mouse) memory deficit model assessed as escape latency time at 5 mg/kg, ip administered 30 min prior to scopolamine challenge measured on day 1 by Morris water maze test (reference value: 89.7 +/- 3.8 secs); format: functional; details: route intraperitoneal
Mus musculus [3] = assay: Antiamnestic activity in scopolamine-induced Swiss albino Mus musculus (mouse) memory deficit model assessed as escape latency time at 2 mg/kg, ip administered 30 min prior to scopolamine challenge measured on day 1 by Morris water maze test (reference value: 89.7 +/- 3.8 secs); format: functional; details: route intraperitoneal
Mus musculus [4] = assay: Antiamnestic activity in scopolamine-induced Swiss albino Mus musculus (mouse) memory deficit model assessed as escape latency time at 10 mg/kg, ip administered 30 min prior to scopolamine challenge measured on day 1 by Morris water maze test (reference value: 89.7 +/- 3.8 secs); format: functional; details: route intraperitoneal
Mus musculus [5] = assay: Antiamnestic activity in scopolamine-induced Swiss albino Mus musculus (mouse) memory deficit model assessed as escape latency time at 10 mg/kg, ip administered 30 min prior to scopolamine challenge measured on day 4 by Morris water maze test (reference value: 78.7 +/- 5.7 secs); format: functional; details: route intraperitoneal
Mus musculus [6] = assay: Antiamnestic activity in scopolamine-induced Swiss albino Mus musculus (mouse) memory deficit model assessed as increase in time spent in target quadrant at 2 to 10 mg/kg, ip administered 30 min prior to scopolamine challenge measured on day 5 by Morris water maze test relative to vehicle-treated control; format: functional, organism-based
Mus musculus [7] = assay: Antiamnestic activity in scopolamine-induced Swiss albino Mus musculus (mouse) memory deficit model assessed as escape latency time at 5 mg/kg, ip administered 30 min prior to scopolamine challenge measured on day 4 by Morris water maze test (reference value: 78.7 +/- 5.7 secs); format: functional; details: route intraperitoneal
Mus musculus [8] = assay: Antiamnestic activity in scopolamine-induced Swiss albino Mus musculus (mouse) memory deficit model assessed as increase in time spent in target quadrant at 25 mg/kg, ip administered 30 min prior to scopolamine challenge measured on day 5 by Morris water maze test relative to vehicle-treated control; format: functional, organism-based; set-up: dose 25 mg/kg

Structure (SMILES) | IC50 (Acetylcholinesterase) [nM] | other results
COc1cc(OC)c2c(c1)OC(c1cccc(OC(=O)Nc3ccccc3)c1)CC2=O (stereo unspecified) | 19.6 | –
O=C1CC(c2cccc(O)c2)Oc2ccccc21 (stereo unspecified) [3'-HYDROXYFLAVANONE] | 147 | –
COc1cc(C2CC(=O)c3ccccc3O2)cc(OC)c1OC(=O)Nc1ccccc1 (stereo unspecified) | 19.3 | –
O=C(Nc1ccccc1)Oc1ccc(C2CC(=O)c3ccccc3O2)cc1 (stereo unspecified) | 36.7 | –
COc1cc(OC)c2c(c1)OC(c1ccc(O)cc1)CC2=O (stereo unspecified) | 118 | –
COc1cc(OC)c2c(c1)OC(c1cc(OC)c(OC(=O)Nc3ccccc3)c(OC)c1)CC2=O (stereo unspecified) | 9.9 | Time (Mus musculus [1]): 72.1 s; Time (Mus musculus [2]): 87.5 s; Time (Mus musculus [3]): 84.3 s; Time (Mus musculus [4]): 83.1 s; Time (Mus musculus [5]): 45.4 s; Activity (Mus musculus [6]): Active; Time (Mus musculus [7]): 66.4 s
COc1cc(OO)cc2c1C(=O)CC(c1ccccc1OC(=O)Nc1ccccc1)O2 (stereo unspecified) | 21.5 | –
COc1cc(OC)c2c(c1)OC(c1ccc(OC(=O)Nc3ccccc3)cc1)CC2=O (stereo unspecified) | 18.8 | –
O=C(Nc1ccccc1)Oc1cccc(C2CC(=O)c3ccccc3O2)c1 (stereo unspecified) | 38.8 | –
O=C1CC(c2ccccc2O)Oc2ccccc21 (stereo unspecified) [2'-HYDROXY-FLAVANONE] | 149 | –
COc1cc(OC)c2c(c1)OC(c1cc(OC)c(O)c([N+](=O)[O-])c1)CC2=O (stereo unspecified) | 116 | –
COc1cc(OC)c2c(c1)OC(c1cc(OC)c(O)c(OC)c1)CC2=O (stereo unspecified) | 107 | –
O=C1CC(c2ccc(O)cc2)Oc2ccccc21 (stereo unspecified) [4'-HYDROXY-FLAVANONE] | 145 | –
COc1cc(C2CC(=O)c3ccccc3O2)cc([N+](=O)[O-])c1OC(=O)Nc1ccccc1 (stereo unspecified) | 30.5 | –
COc1cc(C2CC(=O)c3ccccc3O2)cc(OC)c1O (stereo unspecified) | 131 | –
COc1cc(OC)c2c(c1)OC(c1ccc(O)c(OC)c1)CC2=O (stereo unspecified) | 112 | –
COc1cc2c(cc1OC)C(=O)C(CC1CCN(Cc3ccccc3)CC1)C2 (stereo unspecified) | – | Activity (Mus musculus [8]): Active
COc1ccc(C2CC(=O)c3ccccc3O2)cc1O (stereo unspecified) | 140 | –
COc1cc(OC)c2c(c1)OC(c1cc(OC)c(OC(=O)Nc3ccccc3)c([N+](=O)[O-])c1)CC2=O (stereo unspecified) | 18.2 | –
COc1cc(C2CC(=O)c3ccccc3O2)cc([N+](=O)[O-])c1O (stereo unspecified) | 144 | –
O=C(Nc1ccccc1)Oc1ccccc1C1CC(=O)c2ccccc2O1 (stereo unspecified) | 39.9 | –
COc1cc(OC)c2c(c1)OC(c1ccc(OC)c(O)c1)CC2=O (stereo unspecified) | 114 | –
COc1cc(OC)c2c(c1)OC(c1ccccc1O)CC2=O (stereo unspecified) | 120 | –
COc1ccc(C2CC(=O)c3ccccc3O2)cc1OC(=O)Nc1ccccc1 (stereo unspecified) | 27.6 | –
COc1cc(OC)c2c(c1)OC(c1cccc(O)c1)CC2=O (stereo unspecified) | 119 | –
COc1cc(C2CC(=O)c3ccccc3O2)ccc1O (stereo unspecified) | 138 | –
COc1cc(OC)c2c(c1)OC(c1ccc(OC(=O)Nc3ccccc3)c(OC)c1)CC2=O (stereo unspecified) | 12.8 | –
COc1cc(C2CC(=O)c3ccccc3O2)ccc1OC(=O)Nc1ccccc1 (stereo unspecified) | 21.9 | –
COc1cc(OC)c2c(c1)OC(c1ccc(OC)c(OC(=O)Nc3ccccc3)c1)CC2=O (stereo unspecified) | 16.3 | –
